The conditions of data set [1]: literature; cited from earlier work.
The nature of data set [2]: NINCDS Maximal Electroshock Seizure Test (MES). Conditions: for minimal effective dose: read-out: MES: dosage level that elicited protection. In kind it is in vivo, mice. On the procedure: 1. Neurological Activity Tests. […] Compounds were evaluated for anticonvulsant activity in two seizure models, the maximal electroshock seizure (MES) test and the subcutaneous pentylenetetrazol (Metrazol) seizure threshold (scMet) test.
The Maximal Electroshock Seizure Test was performed according to the method described by Swinyard and coworkers,* wherein a drop of 0.9% saline is instilled in each eye prior to application of corneal electrodes. Seizures are elicited with a 50 Hz alternating current of 50 mA (5 to 7 times that necessary to elicit minimal electroshock seizures) delivered for 0.2 sec via corneal electrodes. This stimulus will produce a maximal seizure in all normal mice. The maximal seizure typically consists of a short period of initial tonic flexion and a prolonged period of hind limb tonic extension, followed by terminal clonus. The seizure lasts about 22 seconds. Abolition of the hind limb tonic extensor component of the seizure is defined as protection and indicates anticonvulsant activity in the test compound.
The ability of a compound to prevent maximal electroshock seizures is believed to correlate with its ability to prevent the spread of seizure discharge through neural tissue. Activity against maximal electroshock seizures is thought to indicate potential efficacy in the treatment of major motor (grand mal) seizures. […] Selective action in the test is believed to indicate potential efficacy against absence (petit mal) seizures.
As described earlier, the MES, scMet and Rotorod tests were performed one-half hour and four hours after administration of each compound.
In the Secondary Evaluation, median effective doses (ED50) are determined in the MES, scMet and Rotorod assays using the procedures defined in Pharmacology, 95, 99-113 (1949).
(§1) Separate groups of animals are used for each time period. The times of peak toxic and anticonvulsant effect are taken from the resulting graph of percent of animals responding vs. time, and the determinations of median effective doses are performed at those times.
For orientation: The maximal electroshock test induces tonic seizures with an electrical stimulus.

The conditions of data set [3]: literature; cited from earlier work. The source holds these as a separate data set.
Data set [4] is described as follows: NPP lethality (estimated LD50). The following applies: mouse, in vivo, ip.
Data set [5] is described as follows: NINCDS Subcutaneous Pentylenetetrazol (Metrazol) Seizure Threshold Test (scMet). In kind it is in vivo, mice. The following applies: for minimal effective dose: sc, read-out: scMet: dosage level that elicited protection.
A short description of data set [6]: NINCDS rotorod ataxia test (minimal neurotoxicity). It is filed as in vivo, mice. As to the method: (§2) 1. Neurological Activity Tests. The biological testing program is designed to evaluate the following four aspects of drug action: (1) the existence and specificity of anticonvulsant activity; (2) the toxicity, particularly to the central nervous system; and, if the results of (1) and (2) are favorable, (3) the potency and protective index, a comparison between toxic and effective dose and (4) the time course of activity. Compounds were evaluated for anticonvulsant activity in two seizure models, the maximal electroshock seizure (MES) test and the subcutaneous pentylenetetrazol (Metrazol) seizure threshold (scMet) test.
Central nervous system toxicity was evaluated in the rotorod ataxia test. This test is designed to detect minimal neurotoxicity. The animal is placed on a 1-inch diameter knurled plastic rod rotating at 6 rpm. Normal mice can remain indefinitely on a rod rotating at this speed. Neurological deficit is defined as the failure of the animal to remain on the rod for at least 1 minute. This test has a clear end-point, is quantifiable and correlates well with the clinical assessment of minimal toxicity.
(§3) Specific anticonvulsant evaluations performed by NINCDS using MES, scMet and Rotorod assays are presented in Tables III & IV for fourteen new compounds as well as several known compounds. Table III centers attention on 2-substituted-3-o-tolyl-4-(3H)-quinazolinones while Table IV includes the findings for various other 2,3-disubstituted-4(3H)-quinazolinones. As described earlier, the MES, scMet and Rotorod tests were performed one-half hour and four hours after administration of each compound. The tables identify the dosage level that elicited a positive result, such as protection against MES and scMet induced seizures, or loss of balance on the rotorod.
In the Secondary Evaluation, median effective doses (ED50) are determined in the MES, scMet and Rotorod assays using the procedures defined in Pharmacology, 95, 99-113 (1949). In addition, each compound's anticonvulsant activity and neurotoxicity over time are determined by measuring the effect of an intraperitoneally administered estimated median effective dose on maximal electroshock seizures and rotorod performance at intervals of 1/2, 1, 2, 3, 4, 6 and 8 hours.
as §1
On the technique in general: Falling from the rotarod earlier than controls is read as motor impairment.

Data set [7] can be described thus: NPP maximal electroshock seizure (MES) protection. It is filed as in vivo, white male mice of the Carworth Farm Strain CF-1. The following applies: Mus musculus, ip; conducted at 30 mg/kg i.p.
Data set [8] can be described thus: Neuropharmacological Profile (NPP): general CNS observational screen (depression, righting reflex, ataxia). Conditions: at 30 mg/kg (value in parentheses), i.p., mice, score 0-8.
The conditions of data set [9]: literature, mice; cited from earlier work.
Data set [10] is described as follows: NINCDS primary evaluation, overall classification. It is filed as in vivo, mice. Conditions: primary evaluation. On the procedure: as §2, §3
The conditions of data set [11]: literature; cited from earlier work. The source holds these as a separate data set.
[12] abbreviates: Mus musculus, ip, after 4 hr (value in parentheses).
Setting [13] is: Mus musculus, ip, secondary evaluation, at time of peak effect.
Setting [14] is: Mus musculus, after 4 hr (value in parentheses).
Where [15] appears, read: after 4 hr (value in parentheses).

For orientation: ED50 means the midpoint of the dose-response relation. One may read the LD50 as the dose expected to kill half of the subjects tested. Broadly, the TD50 is the dose at which the toxic effect under study appears in half of the subjects.

For `CCC1(c2ccccc2)C(=O)NC(=O)NC1=O` [phenobartital], the “protection against maximal electro-shock seizures (in words)” value in data set [1] is reported as “better protector against maximal electro-shock seizures (MES) then methaqualone”.
`Cc1ccccc1-n1c(C)nc2ccccc2c1=O` [methaqualone, 2-methyl-3-o-tolyl-4(3H)-quinazolinone, reference compound]: the minimal effective dose in [2] (Mus musculus, ip, after 0.5 hr) amounted to 100 mg/kg; in data set [2] (setting [12]) it was 300 mg/kg; in data set [5] (Mus musculus, after 0.5 hr), 100 mg/kg; in data set [5] (setting [14]), 300 mg/kg. The median effective dose (ED50) was found to be 52 mg/kg in [2] (setting [13]) and 33.5 mg/kg in [5] (setting [13]). The “activity in the MES test, comparison methaqualone/mecloqualone” value in [2] (primary evaluation) is recorded as “more active in the MES test”. The “sedative-hypnotic / hypnotic / depressant activity (in words)” value in data set [3] was “comparable to short-acting barbiturates in terms of sedative-hypnotic activity”. For the same molecule, the LD50 at 48 h in data set [4] is above 562 mg/kg. Besides, the “Rotorod: dosage level that elicited loss of balance” value amounted to 100 mg/kg in data set [6] (after 0.5 hr) and 300 mg/kg in [6] (setting [15]). The TD50 in data set [6] (mouse, in vivo, ip, secondary evaluation, at time of peak effect) stood at 55 mg/kg. The responders at 30 mg/kg in [7] is 0%. Further, in [8], the “CNS Depression” value was 8. In addition, the “prevention of pentylenetetrazol induced convulsive seizures (in words)” value in [9] was “superior to sodium phenobarbitone”.
Turning to `Cc1nc2ccccc2c(=O)n1-c1ccccc1Cl` [mecloqualone, 2-methyl-3-o-chlorophenyl-4(3H)-quinazolinone, reference compound], the “toxicity remark (footnote a to NINCDS classification)” value in data set [10] is “Extremely toxic”. Also, the minimal effective dose in data set [2] (setting [12]) was 300 mg/kg; in [5] (Mus musculus, after 0.5 hr) it was 30 mg/kg; in [5] (setting [14]), 100 mg/kg. The “anticonvulsant activity (in words)” value in data set [11] is “better anticonvulsant agent than methaqualone”. Further, the “effectiveness in protection against scMet induced seizures, comparison methaqualone/mecloqualone” value in [5] (primary evaluation) was “more effective in protection against scMet induced seizures”. Besides, the figures for the “Rotorod: dosage level that elicited loss of balance” value in data set [6] (after 0.5 hr) and in [6] (setting [15]) were 30 mg/kg and 100 mg/kg, respectively.
